Experimental data taken from patent publication US11242337B2, “Compounds useful for treating gastrointestinal tract disorders” (Ardelyx, Inc., priority 2017, dated 2022).
Counter-ions that a name gives are not always drawn.

Tests used:
[1] = molecular target: T1, NHE3 (Homo sapiens, UniProt P48764); assay: Cell-based assay of NHE-3 activity (pre-incubation inhibition), human; conditions: human Preincubation; for IC50 / pIC50: 0-30 μM test compound
T1 construct: expressed in transfected cells
T1 sequence (P48764 26-834): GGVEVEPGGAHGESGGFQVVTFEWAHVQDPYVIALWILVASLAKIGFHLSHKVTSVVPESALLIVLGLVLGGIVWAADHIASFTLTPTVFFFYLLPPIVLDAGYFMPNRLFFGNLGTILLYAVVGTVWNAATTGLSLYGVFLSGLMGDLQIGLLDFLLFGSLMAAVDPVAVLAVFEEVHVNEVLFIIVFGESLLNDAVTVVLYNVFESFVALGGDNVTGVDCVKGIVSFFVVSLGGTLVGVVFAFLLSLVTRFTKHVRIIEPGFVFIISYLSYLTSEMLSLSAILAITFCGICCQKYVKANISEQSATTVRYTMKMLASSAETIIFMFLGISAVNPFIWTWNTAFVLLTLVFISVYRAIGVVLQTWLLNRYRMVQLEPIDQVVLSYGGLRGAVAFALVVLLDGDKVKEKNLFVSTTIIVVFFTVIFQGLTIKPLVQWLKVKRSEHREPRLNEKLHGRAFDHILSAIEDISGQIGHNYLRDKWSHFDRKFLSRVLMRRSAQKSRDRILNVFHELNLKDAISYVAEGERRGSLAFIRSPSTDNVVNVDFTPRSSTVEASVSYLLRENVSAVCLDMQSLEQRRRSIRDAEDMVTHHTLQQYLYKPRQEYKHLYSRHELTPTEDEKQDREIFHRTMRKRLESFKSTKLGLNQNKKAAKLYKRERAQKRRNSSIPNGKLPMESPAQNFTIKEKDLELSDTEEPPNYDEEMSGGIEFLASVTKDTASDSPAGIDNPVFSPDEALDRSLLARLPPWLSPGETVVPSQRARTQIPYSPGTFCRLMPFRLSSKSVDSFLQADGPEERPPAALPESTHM
T1 sequence (Q99653 2-195 partner limits assumed): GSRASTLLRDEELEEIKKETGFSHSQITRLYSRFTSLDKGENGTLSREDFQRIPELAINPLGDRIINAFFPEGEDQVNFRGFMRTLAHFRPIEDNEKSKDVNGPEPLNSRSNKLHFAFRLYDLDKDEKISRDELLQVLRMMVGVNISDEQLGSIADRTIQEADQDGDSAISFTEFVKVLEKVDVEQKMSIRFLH
In short: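 PS120 fibroblasts stably expressing human NHE3 and NHERF2, loaded 30 min at 37 °C with 5 μM BCECF-AM in NH4Cl buffer, then acidified 10 min at room temperature in Na+-free buffer with 0–30 μM compound. Initial rate of BCECF fluorescence ratio change (FLIPR) per minute taken as Na+/H+ activity.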

[2] = molecular target: T1, NHE3; assay: Cell-based assay of NHE-3 activity (persistent inhibition), human; conditions: human Persistence, 60 min incubation then washout
In short: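 PS120 fibroblasts expressing human NHE3 with NHERF2 exposed to 0-30 μM compound for 60 min at RT, then washed out; cells acid-loaded by NH4Cl prepulse with BCECF-AM and Na+-free buffer. Na+-driven pH recovery started 10 min post-washout; initial rate of BCECF ratio change (FLIPR) taken as activity.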

SMILES | % inhibition [1] | IC50 [1] [nM] | % inhibition [2] | IC50 [2] [nM] | pIC50 [1] | pIC50 [2]
Cc1cc(S(=O)(=O)NCCOCCOCCNC(=O)NCCCCNC(=O)NCCOCCOCCNS(=O)(=O)c2cc(C)c(O[C@H]3c4cc(Cl)cc(Cl)c4C[C@@H]3N(C)C)c(C)c2)cc(C)c1O[C@H]1c2cc(Cl)cc(Cl)c2C[C@@H]1N(C)C [Example 80] | B (40-70%) | 100 to 1000 | B (40-70%) | 100 to 1000 | – | –
Cc1cc(Cl)cc2c1C[C@H](N(C)C)[C@H]2Oc1ccc(S(=O)(=O)NCCOCCOCCNC(=O)NCCCCNC(=O)NCCOCCOCCNS(=O)(=O)c2ccc(O[C@H]3c4cc(Cl)cc(C)c4C[C@@H]3N(C)C)cc2)cc1 [Example 11] | C (>70%) | – | C (>70%) | – | C (NHE3 pIC50 > 7) | C (NHE3 pIC50 > 7)
Cc1cc(S(=O)(=O)N[C@H]2CCN(CCOCCNC(=O)NCCCCNC(=O)NCCOCCN3CC[C@H](NS(=O)(=O)c4ccc(O[C@H]5c6cc(Cl)cc(C)c6C[C@@H]5N5CCC[C@@H](N(C)C)C5)c(C)c4)C3)C2)ccc1O[C@H]1c2cc(Cl)cc(C)c2C[C@@H]1N1CCC[C@@H](N(C)C)C1 [Example 114, 4-([(1S,2S)-6-Chloro-2-[(R)-3-(dimethylamino)piperidin-1-yl]-4-methyl-2,3-dihydro-1H-inden-1-yl]oxy)-N—[(S)-1-(20-[(S)-3-([4-([(1S,2S)-6-chloro-2-[(R)-3-(dimethylamino)piperidin-1-yl]-4-methyl-2,3-dihydro-1H-inden-1-yl]oxy)-3-methylphenyl]sulfonamido)pyrrolidin-1-yl]-7,14-dioxo-3,18-dioxa-6,8,13,15-tetraazaicosyl)pyrrolidin-3-yl]-3-methylbenzenesulfonamide; tetra(trifluoroacetate)] | C (>70%) | – | C (>70%) | – | C (NHE3 pIC50 > 7) | C (NHE3 pIC50 > 7)
Cc1cc(S(=O)(=O)N2CC[C@H](COCCOCCNC(=O)NCCCCNC(=O)NCCOCCOC[C@H]3CCN(S(=O)(=O)c4ccc(O[C@H]5c6cc(Cl)cc(C#N)c6C[C@@H]5N(C)C)c(C)c4)C3)C2)ccc1O[C@H]1c2cc(Cl)cc(C#N)c2C[C@@H]1N(C)C [Example 46, 3-[2-(2-[[(3S)-1-[(4-[[(1S,2S)-6-Chloro-4-cyano-2-(dimethylamino)-2,3-dihydro-1H-inden-1-yl]oxy]-3-methylbenzene)sulfonyl]pyrrolidin-3-yl]methoxy]ethoxy)ethyl]-1-[4-([[2-(2-[[(3S)-1-[(4-[[(1S,2S)-6-chloro-4-cyano-2-(dimethylamino)-2,3-dihydro-1H-inden-1-yl]oxy]-3-methylbenzene)sulfonyl]pyrrolidin-3-yl]methoxy]ethoxy)ethyl]carbamoyl]amino)butyl]urea; bis(trifluoroacetic acid)] | C (>70%) | < 100 | C (>70%) | < 100 | – | –
Cc1cc(S(=O)(=O)NCCOCCOCCNC(=O)NCCCCNC(=O)NCCOCCOCCNS(=O)(=O)c2cc(C)c(O[C@H]3c4cc(Cl)cc(Cl)c4C[C@@H]3N(C)C)cc2F)c(F)cc1O[C@H]1c2cc(Cl)cc(Cl)c2C[C@@H]1N(C)C [Example 90, 3-[2-(2-[2-[(4-[[(1S,2S)-4,6-Dichloro-2-(dimethylamino)-2,3-dihydro-1H-inden-1-yl]oxy]-2-fluoro-5-methylbenzene)sulfonamido]ethoxy]ethoxy)ethyl]-1-[4-([[2-(2-[2-[(4-[[(1S,2S)-4,6-dichloro-2-(dimethylamino)-2,3-dihydro-1H-inden-1-yl]oxy]-2-fluoro-5-methylbenzene)sulfonamido]ethoxy]ethoxy)ethyl]carbamoyl]amino)butyl]urea; bis(trifluoroacetic acid)] | C (>70%) | – | C (>70%) | 100 to 1000 | C (NHE3 pIC50 > 7) | –
CC(C)[C@H](COCCOCCNC(=O)NCCCCNC(=O)NCCOCCOC[C@H](NS(=O)(=O)c1ccc(O[C@H]2c3cc(Cl)cc(Cl)c3C[C@@H]2N2CCC[C@@H](N)C2)cc1)C(C)C)NS(=O)(=O)c1ccc(O[C@H]2c3cc(Cl)cc(Cl)c3C[C@@H]2N2CCC[C@@H](N)C2)cc1 [Example 99, 3-(2-[2-[(2R)-2-[(4-[[(1S,2S)-2-[(3R)-3-Aminopiperidin-1-yl]-4,6-dichloro-2,3-dihydro-1H-inden-1-yl]oxy]benzene)sulfonamido]-3-methylbutoxy]ethoxy]ethyl)-1-(4-[[(2-[2-[(2R)-2-[(4-[[(1S,2S)-2-[(3R)-3-aminopiperidin-1-yl]-4,6-dichloro-2,3-dihydro-1H-inden-1-yl]oxy]benzene)sulfonamido]-3-methylbutoxy]ethoxy]ethyl)carbamoyl]amino]butyl)urea] | C (>70%) | – | C (>70%) | 100 to 1000 | C (NHE3 pIC50 > 7) | –
N#Cc1cc(Cl)cc2c1C[C@H](N1CCC[C@@H](N)C1)[C@H]2Oc1ccc(S(=O)(=O)NCCOCCOCCNC(=O)NCCCCNC(=O)NCCOCCOCCNS(=O)(=O)c2ccc(O[C@H]3c4cc(Cl)cc(C#N)c4C[C@@H]3N3CCC[C@@H](N)C3)c(F)c2)cc1F [Example 38] | A (NHE3 < 40%) | – | A (NHE3 < 40%) | – | A (NHE3 pIC50 < 6) | A (NHE3 pIC50 < 6)
CC(C)[C@@H](COCCOCCNC(=O)NCCCCNC(=O)NCCOCCOC[C@@H](NS(=O)(=O)c1ccc(O[C@H]2c3cc(Cl)cc(Cl)c3C[C@@H]2N2CCC[C@@H](N)C2)cc1)C(C)C)NS(=O)(=O)c1ccc(O[C@H]2c3cc(Cl)cc(Cl)c3C[C@@H]2N2CCC[C@@H](N)C2)cc1 [Example 98, 3-(2-[2-[(2S)-2-[(4-[[(1S,2S)-2-[(3R)-3-Aminopiperidin-1-yl]-4,6-dichloro-2,3-dihydro-1H-inden-1-yl]oxy]benzene)sulfonamido]-3-methylbutoxy]ethoxy]ethyl)-1-(4-[[(2-[2-[(2S)-2-[(4-[[(1S,2S)-2-[(3R)-3-aminopiperidin-1-yl]-4,6-dichloro-2,3-dihydro-1H-inden-1-yl]oxy]benzene)sulfonamido]-3-methylbutoxy]ethoxy]ethyl)carbamoyl]amino]butyl)urea dihydrochloride] | C (>70%) | – | C (>70%) | – | C (NHE3 pIC50 > 7) | C (NHE3 pIC50 > 7)
NC1CCCN(C2Cc3c(Cl)cc(Cl)cc3C2Oc2ccc(S(=O)(=O)NCCOCCOCCn3cc(CNC(=O)C(O)C(O)C(O)C(O)C(=O)NCc4cn(CCOCCOCCNS(=O)(=O)c5ccc(OC6c7cc(Cl)cc(Cl)c7CC6N6CCCC(N)C6)cc5)nn4)nn3)cc2)C1 [Example 57, (2R,3S,4R,5S)—N^1,N^6-Bis([1-[2-(2-[2-[(4-[[(1S,2S)-2-[(3R)-3-aminopiperidin-1-yl]-4,6-dichloro-2,3-dihydro-1H-inden-1-yl]oxy]benzene)sulfonamido]ethoxy]ethoxy)ethyl]-1H-1,2,3-triazol-4-yl]methyl)-2,3,4,5-tetrahydroxyhexanediamide] | – | – | – | – | C (NHE3 pIC50 > 7) | C (NHE3 pIC50 > 7)
